Measured values reported in the supplement of paper PMC11451515.

Assays:
Details in all cases: 48 h
NOMO1 [1] = experiment: cell viability relative to DMSO control; higher = less cytotoxic
Procedure, shortened: (§1)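 NOMO1 or SEM (500 cells/well) or P12-Ichikawa (1000 cells/well) leukemia cells were adapted for at least four passages in each medium. They were seeded in 1536-well plates (5 μl) and pin-dosed with library compounds in DMSO over an 11-point threefold series, 47 μM to 0.79 nM. CellTiter-Glo One luminescence was read after 48 h at 37°C. Viability is the per-plate percentage relative to DMSO wells, with cell-free wells as background.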

P12-Ichikawa [2] = experiment: as above
Procedure, shortened: as §1

SEM cells [3] = experiment: as above
Procedure, shortened: as §1

NOMO1 [4] = experiment: AUC of viability dose-response curve (% viability x log10 dose units); higher = less sensitive
Procedure, shortened: (§2)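 Medium-adapted leukemia cells in 1536-well plates, at 500 or 1000 cells/well, were incubated for 48 h at 37°C with library compounds in DMSO at 11 threefold doses from 47 μM to 0.79 nM. CellTiter-Glo One luminescence normalised per plate to DMSO and cell-free wells was fitted with a four-parameter log-logistic model over log10 doses. Area under the curve was integrated from this fit by trapezoidal rule, with curves beyond full viability scaled and failed quality-control curves removed.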

P12-Ichikawa [5] = experiment: as above
Procedure, shortened: as §2

SEM cells [6] = experiment: as above
Procedure, shortened: as §2

COc1ccc2c(OCc3nnc4ccc(-c5ccccc5)nn34)ccnc2c1
cell viability [%]
Details | NOMO1 [1] | P12-Ichikawa [2] | SEM cells [3]
HPLM + 10% dialyzed FBS, 0.000781 µM | 94.4 | 101 | 106
HPLM + 10% dialyzed FBS, 0.00234 µM | 98.9 | 116 | 101
HPLM + 10% dialyzed FBS, 0.00702 µM | 86.7 | 106 | 101
HPLM + 10% dialyzed FBS, 0.0211 µM | 92.8 | 104 | 107
HPLM + 10% dialyzed FBS, 0.0632 µM | 90.2 | 104 | 120
HPLM + 10% dialyzed FBS, 0.19 µM | 93.9 | 97.5 | 92.9
HPLM + 10% dialyzed FBS, 0.569 µM | 104 | 104 | 107
HPLM + 10% dialyzed FBS, 1.71 µM | 83.9 | 95.9 | 102
HPLM + 10% dialyzed FBS, 5.12 µM | 94 | 103 | 97.4
HPLM + 10% dialyzed FBS, 15.4 µM | 104 | 103 | 75.9
HPLM + 10% dialyzed FBS, 46.1 µM | 65.2 | 28.1 | 15.6
RPMI 5 mM glucose + 10% FBS, 0.000781 µM | 113 | 115 | 68.7
RPMI 5 mM glucose + 10% FBS, 0.00234 µM | 123 | 117 | 63.1
RPMI 5 mM glucose + 10% FBS, 0.00702 µM | 116 | 123 | 71.5
RPMI 5 mM glucose + 10% FBS, 0.0211 µM | 116 | 122 | 82.1
RPMI 5 mM glucose + 10% FBS, 0.0632 µM | 117 | 114 | 84
RPMI 5 mM glucose + 10% FBS, 0.19 µM | 114 | 106 | 78.6
RPMI 5 mM glucose + 10% FBS, 0.569 µM | 117 | 112 | 105
RPMI 5 mM glucose + 10% FBS, 1.71 µM | 116 | 117 | 78.2
RPMI 5 mM glucose + 10% FBS, 5.12 µM | 112 | 106 | 60.8
RPMI 5 mM glucose + 10% FBS, 15.4 µM | 113 | 124 | 25.6
RPMI 5 mM glucose + 10% FBS, 46.1 µM | 116 | 122 | 1.49
RPMI 5 mM glucose + 10% dialyzed FBS, 0.000781 µM | 113 | 123 | 94
RPMI 5 mM glucose + 10% dialyzed FBS, 0.00234 µM | 123 | 118 | 96.8
RPMI 5 mM glucose + 10% dialyzed FBS, 0.00702 µM | 133 | 105 | 90.5
RPMI 5 mM glucose + 10% dialyzed FBS, 0.0211 µM | 119 | 111 | 111
RPMI 5 mM glucose + 10% dialyzed FBS, 0.0632 µM | 129 | 105 | 115
RPMI 5 mM glucose + 10% dialyzed FBS, 0.19 µM | 102 | 105 | 102
RPMI 5 mM glucose + 10% dialyzed FBS, 0.569 µM | 131 | 106 | 95.3
RPMI 5 mM glucose + 10% dialyzed FBS, 1.71 µM | 116 | 103 | 91.1
RPMI 5 mM glucose + 10% dialyzed FBS, 5.12 µM | 115 | 106 | 81
RPMI 5 mM glucose + 10% dialyzed FBS, 15.4 µM | 119 | 109 | 63.1
RPMI 5 mM glucose + 10% dialyzed FBS, 46.1 µM | 122 | 77.7 | 3.65

AUC of viability dose-response curve
Details | HPLM + 10% dialyzed FBS | RPMI 5 mM glucose + 10% FBS | RPMI 5 mM glucose + 10% dialyzed FBS
NOMO1 [4] | 443 | 471 | 466
P12-Ichikawa [5] | 459 | 477 | 428

Cc1cc(-c2ncc(CC(=O)Nc3ccc(-c4cnccn4)cn3)cc2C)ccn1
AUC of viability dose-response curve
Details | NOMO1 [4] | P12-Ichikawa [5] | SEM cells [6]
HPLM + 10% dialyzed FBS | 445 | 458 | 462
RPMI 5 mM glucose + 10% FBS | 466 | 439 | 458
RPMI 5 mM glucose + 10% dialyzed FBS | 447 | 456 | 457

O=[S+]([O-])(F)Cc1ccccc1
SEM cells [3], HPLM + 10% dialyzed FBS
Details | cell viability [%]
0.000781 µM | 120
0.00234 µM | 122
0.00702 µM | 134
0.0211 µM | 122
0.0632 µM | 125
0.19 µM | 50.5
0.569 µM | 109
1.71 µM | 133
5.12 µM | 114
15.4 µM | 115
46.1 µM | 112

AUC of viability dose-response curve
Details | NOMO1 [4] | P12-Ichikawa [5] | SEM cells [6]
HPLM + 10% dialyzed FBS | 434 | 446 | 455
RPMI 5 mM glucose + 10% FBS | 468 | 448 | 440
RPMI 5 mM glucose + 10% dialyzed FBS | 476 | 442 | 446
